Test results published in patent US4337760A, “Method for the treatment of tumors with β-glucuronidase activity dependent pharmaceuticals” (Schwimmer; Adolf, priority 1979, dated 1982).

Tests used:
[1] = in vivo; cited from earlier work
[2] = alkaline vs acid pH; cited from earlier work
β-glucuronidase [3] = assay: Incubation with β-glucuronidase; type: biochemical
Procedure: The free acid form of the compound was formed by treating the 2,4-dinitrophenyl-methyl(tri-O-acetyl-β-D-glucopyranosyl bromide)-uronate with a one-half molar amount of barium hydroxide to produce the barium salt. This barium salt of the glucuronide precipitates as a white amorphous material. An equimolar solution of H2 SO4 releases the free glucuronide. Distillation of the supernatant yielded bright yellow-brown crystals having a melting point of 179°-180° C.

trophoblastic cells = conditions: reported; cited from earlier work
[4] = Acute intravenous toxicity to rabbits, range finding screen; type: in vivo, NZW rabbits; conditions: i.v.; for Mortality ratio: 14 day observation
Procedure: (§1) NZW rabbits in the weight range of 2,000 to 3,200 g for females and 2,200 to 3,800 g for males were injected intravenously with mandelonitrile β-D-glucuronic acid solution. Rabbits injected with saline alone served as the control. The mandelonitrile β-D-glucuronic acid solution contained 10% mandelonitrile.
(§2) During the 14 day observation period a record was kept of all mortalities and signs of toxicity.

[5] = Acute intravenous toxicity to rabbits, full scale test; type: in vivo, NZW rabbits; conditions: for acute median lethal intravenous dose (LD 50): 10% solution, 95% confidence limits, method of Weil
Procedure: as §1, §2
Dosing was then extended to larger groups of rabbits (5 males and 5 females per group) in order to locate the median lethal dose more precisely.
All the deaths of all the groups occurred within 3 hours after dosing.
The acute median lethal intravenous dose (LD 50) and its 95% confidence limints calculated by the method of Weil, C. S., 1952, Biometrics, 8:249, to rabbits of mandelonitrile-β-D-glucuronic acid 10% solution are calculated to be: […]

β-glucuronidase [6] = conditions: cited from earlier work

## Neomycin
[1]
  known adverse effect: cannot be administered internally because of its toxicity

## Cc1cc(O)cc(C)c1Cl [4-chloro-3,5-xylanol]
[2]
  pH-dependent solubility: water soluble at alkaline pH's and lipid-soluble at acid pH's

## O=C(O)[C@H]1O[C@@H](Oc2ccc([N+](=O)[O-])cc2[N+](=O)[O-])[C@H](O)[C@@H](O)[C@@H]1O [2,4-dinitrophenol-β-D-glucuronic acid]
β-glucuronidase [3]
  product on incubation with β-glucuronidase: produced 2,4-dinitrophenol

## C[C@]12CC[C@H]3[C@@H](CCC4=CC(=O)CC[C@@]43C)[C@@H]1CC[C@@H]2O [testosterone]
Trophoblastic cells
  β-glucuronidase activity in trophoblastic cells: induce β-glucuronidase activity

## N#CC(O[C@@H]1O[C@H](C(=O)O)[C@@H](O)[C@H](O)[C@H]1O)c1ccccc1 (stereo partly drawn) [mandelonitrile β-D-glucuronic acid, Mandelonitrile β-D-glucuronic acid]
[4]; 0.25 ml/kg
  Mortality ratio: 0/2
[4]; 0.5 ml/kg
  Mortality ratio: 1/2
[4]; 1.0 ml/kg
  Mortality ratio: 2/2
[4]; 2.0 ml/kg
  Mortality ratio: 2/2
[4]; 4.0 ml/kg
  Mortality ratio: 2/2
[4]; rabbits, preliminary range finding
  median lethal intravenous dose (LD-50): 0.23-2 ml per kg body weight
[5]; all groups, i.v.
  Time of all the deaths of all the groups after dosing: ≤ 3 h
[5]; believed, from the rabbit data
  maximum safe dose: ~0.44 ml/kg body weight
[5]; females
  acute median lethal intravenous dose (LD 50): 0.6873 (0.6442-0.7304) ml/kg body weight
[5]; females, i.v., 0.44 ml/kg
  Mortality ratio: 0/5
[5]; females, i.v., 0.66 ml/kg
  Mortality ratio: 2/5
  Time of death after dosing: No of hours: < 3 h
  Time of death after dosing: No. of animals: 2 animals
[5]; females, i.v., 1.0 ml/kg
  Mortality ratio: 5/5
  Time of death after dosing: No of hours: < 3 h
  Time of death after dosing: No. of animals: 5 animals
[5]; females, i.v., 1.5 ml/kg
  Mortality ratio: 5/5
  Time of death after dosing: No of hours: < 3 h
  Time of death after dosing: No. of animals: 5 animals
[5]; females, i.v., 2.25 ml/kg
  Mortality ratio: 5/5
  Time of death after dosing: No of hours: < 3 h
  Time of death after dosing: No. of animals: 5 animals
[5]; following 14 days
  Clinical symptoms of surviving animals: did not show any clinical symptoms
[5]; gross pathology
  Autopsy of all animals: did not show clear gross pathological changes
[5]; males
  acute median lethal intravenous dose (LD 50): 0.8419 (0.7809-0.9029) ml/kg body weight
[5]; males, i.v., 0.44 ml/kg
  Mortality ratio: 0/5
[5]; males, i.v., 0.66 ml/kg
  Mortality ratio: 2/5
  Time of death after dosing: No of hours: < 3 h
  Time of death after dosing: No. of animals: 2 animals
[5]; males, i.v., 1.0 ml/kg
  Mortality ratio: 3/5
  Time of death after dosing: No of hours: < 3 h
  Time of death after dosing: No. of animals: 3 animals
[5]; males, i.v., 1.5 ml/kg
  Mortality ratio: 4/5
  Time of death after dosing: No of hours: < 3 h
  Time of death after dosing: No. of animals: 4 animals
[5]; males, i.v., 2.25 ml/kg
  Mortality ratio: 5/5
  Time of death after dosing: No of hours: < 3 h
  Time of death after dosing: No. of animals: 5 animals
[5]; observed 2 minutes after dosing, i.v.
  Signs of reaction to treatment: ataxia and paralysis
[5]; two minutes after the signs of reaction, high dose group
  Early deaths: a few animals of the high dose group died

## N#C[C@H](O[C@@H]1O[C@H](CO[C@@H]2O[C@H](CO)[C@@H](O)[C@H](O)[C@H]2O)[C@@H](O)[C@H](O)[C@H]1O)c1ccccc1 [amygdalin]
β-glucuronidase [6]
  splitting by the enzyme β-glucuronidase: cannot be split

## Oc1c(I)cc(Cl)c2cccnc12 [5-chloro-7-iodo-8-quinolinol]
[2]
  pH-dependent solubility: water soluble at alkaline pH's and lipid-soluble at acid pH's
